In experiment [1] the test system is McoG. The following applies: read-out: ABTS; pH 5.0; 0.125 to 15 mM substrate.
Experiment [2] has as its system McoB. To be noted: read-out: ABTS; pH 5.0; 0.125 to 15 mM substrate.
Experiment [3] relates to T1, McoG.
T1 construct: secreted, homologously expressed in A. niger N593, purified from culture supernatant; theoretical ~65 kDa, ~80 kDa SDS-PAGE, ~99 kDa gel filtration; monomer; blue
Kind of experiment: initial oxidation rate at […] nm, Michaelis-Menten fit. In kind it is biochemical, Aspergillus niger. The following applies: pH 5.0; 0.125 to 15 mM substrate; fit with substrate inhibition; read-out: DMPPDA.

The target of experiment [4] is T2, McoB.
T2 construct: secreted, homologously expressed in A. niger N593, purified from culture supernatant; theoretical ~63 kDa, ~88 kDa SDS-PAGE, ~96 kDa gel filtration; monomer; yellow
Described as above. In kind it is biochemical, Aspergillus niger. To be noted: substrate inhibition; second site; pH 5.0.

Experiment [5] deals with T2, McoB. The experiment is described as above. In kind it is biochemical, Aspergillus niger. The following applies: pH 5.0; 0.125 to 15 mM substrate; fit with substrate inhibition; read-out: DMPPDA.
Experiment [6] concerns T3, McoA.
T3 construct: secreted, homologously expressed in A. niger N593, purified from culture supernatant; theoretical ~64 kDa, ~110 kDa SDS-PAGE, ~120 kDa gel filtration; monomer; blue
The experiment is described as above. The following applies: pH 5.0; 0.125 to 15 mM substrate; read-out: DMPPDA. Format: biochemical, Aspergillus niger.

For experiment [7], the target named is T1, McoG. The experiment is described as above. To be noted: substrate inhibition; second site; pH 5.0. Format: biochemical, Aspergillus niger.

The text below walks through data of article PMC3548707, “Biocatalytic potential of laccase-like multicopper oxidases from Aspergillus niger” (Microbial Cell Factories, 2012).

Read-outs that look alike come from different tables or passages of the source.

Take `CCn1c(=NN=c2sc3cc(S(=O)(=O)O)ccc3n2CC)sc2cc(S(=O)(=O)O)ccc21` [ABTS]: the figures for the Km in experiment [1] and in experiment [2] were 5600 ± 1000 µM and 500 ± 100 µM, respectively.

As to `CN(C)c1ccc(N)cc1` [DMPPDA], the values for the Km in experiment [3], in experiment [5] and in experiment [6] were 1800 ± 300 µM, 400 ± 100 µM and 3600 ± 200 µM, respectively. The Ki amounted to 22.4 ± 6.4 mM in experiment [4] and 4.6 ± 0.7 mM in experiment [7].
